In article PMC10999543, “Identification of kinase modulators as host-directed therapeutics against intracellular methicillin-resistant Staphylococcus aureus” (Frontiers in Cellular and Infection Microbiology, 2024):
Like-named read-outs stand apart in the source and are kept apart here.

Tests used:
intracellular MRSA = assay type: cell-based, Staphylococcus aureus; details: for %GFP+ rep 1 / z-scoreMRSA+ rep 1: replicate 1; for %GFP+ rep 2 / z-scoreMRSA+ rep 2: replicate 2; for %GFP+ rep 3 / z-scoreMRSA+ rep 3: replicate 3; for z-scoreMRSA+ mean: mean of 3 replicates
How it was run: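 HeLa cells were infected with GFP-expressing MRSA (mean MOI 6.8) for 1 h, treated with 30 µg/ml gentamicin for 15 min, then incubated overnight at 37°C with kinase inhibitors and 5 µg/ml gentamicin. Flow cytometry gave % GFP-positive cells, with cell count as viability. Hits were z-score ≤ -2 (infection) and ≥ -3 (count) versus DMSO.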

HeLa cells = experiment: Compound screen by flow cytometry: HeLa cell count as surrogate readout of cell viability (z-scoreHeLa); assay type: cell-based, human; details: for cell count rep 1 / z-scoreHeLa rep 1: replicate 1; for cell count rep 2 / z-scoreHeLa rep 2: replicate 2; for cell count rep 3 / z-scoreHeLa rep 3: replicate 3; for z-scoreHeLa mean: mean of 3 replicates
How it was run: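 The viability surrogate was the count of fixed HeLa cells by flow cytometry, converted to z-scores against DMSO controls with values deviating two-fold excluded. Before counting, cells had been infected with MRSA for 1 h and cleared of extracellular bacteria with gentamicin. They were then exposed overnight to kinase inhibitors in triplicate.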

[1] = PKIS compound screen raw data, MRSA-infected HeLa cells
[2] = PKIS compound screen, MRSA-infected HeLa cells
[3] = PKIS compound screen, Yes/No call
[4] = PKIS compound screen, Yes/No call (effect without cell death)
[5] = PKIS compound screen, Yes/No call on z-scoreMRSA+
[6] = PKIS compounds raw data, MRSA-infected HeLa cells
[7] = PKIS compound screen raw data, HeLa cell count
[8] = PKIS compound screen, HeLa cell count
[9] = PKIS compound screen, Yes/No call on z-scoreHeLa
[10] = PKIS compounds raw data, HeLa cell count
[11] = Yes/No: effect without cell death
[12] = compound screen, MRSA-infected HeLa cells
[13] = compound screen, HeLa cell count

Row | SMILES | %GFP+ rep 1 (intracellular MRSA; [1]) [%] | %GFP+ rep 2 (intracellular MRSA; [1]) [%] | %GFP+ rep 3 (intracellular MRSA; [1]) [%] | z-scoreMRSA+ mean (intracellular MRSA; [2]) | z-scoreMRSA+ rep 1 (intracellular MRSA; [2]) | z-scoreMRSA+ rep 2 (intracellular MRSA; [2]) | z-scoreMRSA+ rep 3 (intracellular MRSA; [2]) | hit (intracellular MRSA; [4]) | effect (intracellular MRSA; [5]) | %GFP+ rep 1 (intracellular MRSA; [6]) [%] | %GFP+ rep 2 (intracellular MRSA; [6]) [%] | %GFP+ rep 3 (intracellular MRSA; [6]) [%] | cell count rep 1 (HeLa cells; [7]) | cell count rep 2 (HeLa cells; [7]) | cell count rep 3 (HeLa cells; [7]) | z-scoreHeLa mean (HeLa cells; [8]) | z-scoreHeLa rep 1 (HeLa cells; [8]) | z-scoreHeLa rep 2 (HeLa cells; [8]) | z-scoreHeLa rep 3 (HeLa cells; [8]) | cell death (HeLa cells; [9]) | other results
1 | O=C(Nc1ccccc1F)NC1CCN(c2ccnc(Nc3ccc(F)cc3)n2)C1 (centres unmarked) [GSK1379722A] | 20.2 | 23.8 | 25.6 | 1.37 | 0.74 | 1.59 | 1.77 | No | No | 32.4 | 32.7 | 32.7 | 32994 | 39130 | 43503 | 1.08 | 1.95 | 0.81 | 0.47 | No | effect (intracellular MRSA; [3]): No; z-scoreMRSA+ mean (intracellular MRSA; PKIS compound screen): 1.11; z-scoreMRSA+ rep 1 (intracellular MRSA; PKIS compound screen): 1.04; z-scoreMRSA+ rep 2 (intracellular MRSA; PKIS compound screen): 1.28; z-scoreMRSA+ rep 3 (intracellular MRSA; PKIS compound screen): 1.01; cell death (HeLa cells; [3]): No; z-scoreHeLa mean (HeLa cells; PKIS compound screen): 0.96; z-scoreHeLa rep 1 (HeLa cells; PKIS compound screen): 1.17; z-scoreHeLa rep 2 (HeLa cells; PKIS compound screen): 0.61; z-scoreHeLa rep 3 (HeLa cells; PKIS compound screen): 1.09; cell count rep 1 (HeLa cells; [10]): 7997; cell count rep 2 (HeLa cells; [10]): 6922; cell count rep 3 (HeLa cells; [10]): 7324
2 | Fc1cc(Cl)ccc1Nc1ccnc2cc(I)ccc12 [GW551191X] | 27.7 | 23.2 | 23.8 | – | – | – | – | – | – | – | – | – | 6255 | 4849 | 6828 | – | – | – | – | – | effect (intracellular MRSA; Yes/No call from z-scoreMRSA+): No; hit (intracellular MRSA; [11]): No; z-scoreMRSA+ mean (intracellular MRSA; [12]): 0.40; z-scoreMRSA+ rep 1 (intracellular MRSA; [12]): 0.57; z-scoreMRSA+ rep 2 (intracellular MRSA; [12]): 0.14; z-scoreMRSA+ rep 3 (intracellular MRSA; [12]): 0.48; cell death (HeLa cells; Yes/No call from z-scoreHeLa): No; z-scoreHeLa mean (HeLa cells; [13]): 0.93; z-scoreHeLa rep 1 (HeLa cells; [13]): 1.37; z-scoreHeLa rep 2 (HeLa cells; [13]): 0.42; z-scoreHeLa rep 3 (HeLa cells; [13]): 1.00
3 | Cc1cccc(-c2nc(Nc3cccc(C(N)=O)c3)c3ccccc3n2)n1 [GW876019X] | 11.7 | 12.9 | 16.0 | -1.70 | -1.89 | -1.78 | -1.43 | No | No | 29.2 | 27.1 | 31.8 | 25839 | 10617 | 8442 | -1.76 | -0.74 | -2.51 | -2.04 | No | effect (intracellular MRSA; [3]): No; z-scoreMRSA+ mean (intracellular MRSA; PKIS compound screen): 0.49; z-scoreMRSA+ rep 1 (intracellular MRSA; PKIS compound screen): 0.42; z-scoreMRSA+ rep 2 (intracellular MRSA; PKIS compound screen): 0.20; z-scoreMRSA+ rep 3 (intracellular MRSA; PKIS compound screen): 0.84; cell death (HeLa cells; [3]): No; z-scoreHeLa mean (HeLa cells; PKIS compound screen): -1.99; z-scoreHeLa rep 1 (HeLa cells; PKIS compound screen): -2.12; z-scoreHeLa rep 2 (HeLa cells; PKIS compound screen): -2.54; z-scoreHeLa rep 3 (HeLa cells; PKIS compound screen): -1.32; cell count rep 1 (HeLa cells; [10]): 2511; cell count rep 2 (HeLa cells; [10]): 2183; cell count rep 3 (HeLa cells; [10]): 3514
4 | Cc1cc(O)cc(C)c1/C=C/c1cncc(C(N)=O)c1 [GW435821X] | 14.7 | 15.8 | 16.5 | -0.94 | -1.00 | -0.82 | -1.00 | No | No | – | – | – | 9030 | 26110 | 32002 | -1.55 | -1.68 | -1.62 | -1.36 | No | –
5 | O=c1cc(N2CCOCC2)nc2n(Cc3cccc(Cl)c3)ccn12 [GSK2296823A] | 13.9 | 14.9 | 15.7 | – | – | – | – | – | – | – | – | – | 36512 | 34515 | 25382 | – | – | – | – | – | effect (intracellular MRSA; Yes/No call from z-scoreMRSA+): No; hit (intracellular MRSA; [11]): No; z-scoreMRSA+ mean (intracellular MRSA; [12]): -1.35; z-scoreMRSA+ rep 1 (intracellular MRSA; [12]): -1.30; z-scoreMRSA+ rep 2 (intracellular MRSA; [12]): -1.23; z-scoreMRSA+ rep 3 (intracellular MRSA; [12]): -1.51; cell death (HeLa cells; Yes/No call from z-scoreHeLa): No; z-scoreHeLa mean (HeLa cells; [13]): 1.30; z-scoreHeLa rep 1 (HeLa cells; [13]): 1.07; z-scoreHeLa rep 2 (HeLa cells; [13]): 1.58; z-scoreHeLa rep 3 (HeLa cells; [13]): 1.26
6 | COc1cc(C=NNc2ncnc3c2cnn3-c2ccccc2)ccc1O [GW513184X] | – | – | – | – | – | – | – | – | – | 11.7 | 13.3 | 13.0 | – | – | – | – | – | – | – | – | effect (intracellular MRSA; Yes/No call from z-scoreMRSA+): No; hit (intracellular MRSA; [11]): No; z-scoreMRSA+ mean (intracellular MRSA; [12]): -0.46; z-scoreMRSA+ rep 1 (intracellular MRSA; [12]): -0.47; z-scoreMRSA+ rep 2 (intracellular MRSA; [12]): -0.0654; z-scoreMRSA+ rep 3 (intracellular MRSA; [12]): -0.85; cell count rep 1 (HeLa cells; [10]): 3697; cell count rep 2 (HeLa cells; [10]): 5698; cell count rep 3 (HeLa cells; [10]): 7463; cell death (HeLa cells; Yes/No call from z-scoreHeLa): No; z-scoreHeLa mean (HeLa cells; [13]): 0.11; z-scoreHeLa rep 1 (HeLa cells; [13]): -0.98; z-scoreHeLa rep 2 (HeLa cells; [13]): 1.08; z-scoreHeLa rep 3 (HeLa cells; [13]): 0.24
7 | CC(C)c1nc(-c2ccc(F)c(NS(=O)(=O)c3c(F)cccc3F)c2)c(-c2ccnc(Nc3ccc(N4CCOCC4)nc3)n2)s1 [GSK1804250A] | 10.3 | 10.8 | 13.4 | -2.25 | -2.27 | -2.35 | -2.14 | No and Yes | Yes | 25.0 | 23.8 | 25.9 | 20970 | 16426 | 18426 | -1.06 | -1.56 | -1.52 | -0.10 | No | effect (intracellular MRSA; [3]): No; z-scoreMRSA+ mean (intracellular MRSA; PKIS compound screen): -0.36; z-scoreMRSA+ rep 1 (intracellular MRSA; PKIS compound screen): -0.40; z-scoreMRSA+ rep 2 (intracellular MRSA; PKIS compound screen): -0.43; z-scoreMRSA+ rep 3 (intracellular MRSA; PKIS compound screen): -0.25; cell death (HeLa cells; [3]): No; z-scoreHeLa mean (HeLa cells; PKIS compound screen): -1.04; z-scoreHeLa rep 1 (HeLa cells; PKIS compound screen): -1.27; z-scoreHeLa rep 2 (HeLa cells; PKIS compound screen): -0.95; z-scoreHeLa rep 3 (HeLa cells; PKIS compound screen): -0.90; cell count rep 1 (HeLa cells; [10]): 3939; cell count rep 2 (HeLa cells; [10]): 4582; cell count rep 3 (HeLa cells; [10]): 4170
